In US10774122B2, “ERG targeted therapy” (The Regents of the University of Michigan, priority 2017, dated 2020):
Like-named read-outs stand apart in the source and are kept apart here. Where a SMILES comes first, the peptide text is derived from it. Where no end group is shown, it is not given here. [ ]: non-standard residue; d: D form.

Tests used:
[1] = system: VCaP (ERG fusion-positive) xenografts; assay: VCaP xenograft mouse model, tumor growth; conditions: 20 mg/kg dose, p<0.01
Description: Athymic Nude-Foxnlnu male mice were procured from Harlan Laboratories, Inc (Indianapolis, Ind.). All procedures involving mice were approved by the University Committee on Use and Care of Animals (UCUCA) at the University of Michigan and conformed to their relevant regulatory standards. […] Statistical significance for Kaplan-Meier analysis was determined by the log-rank (Mantel-Cox) test.
Athymic Nude-Foxnlnu male mice were procured from Harlan Laboratories, Inc. (Indianapolis, Ind.). VCaP (2×10^6 cells) or PC3 (5×10^5 cells) were resuspended in 100 μl of saline with 50% Matrigel (BD Biosciences, Becton Drive, NJ) and implanted subcutaneously into the flank regions on both sides of the mice. Mice were anesthetized using a cocktail of xylazine (80-120 mg/kg, IP) and ketamine (10 mg/kg, IP) for chemical restraint before tumor cells implantation. For short term assays, all tumors were staged for three weeks before starting peptidomimetic treatment. After week 3 (VCaP cells) or 12 days (PC3 cells), mice (10 per treatment group) were treated with peptidomimetics (25 mg/kg or 10 mg/kg as indicated, IP) daily five times a week.
Tumor growth was recorded every three days using digital calipers and tumor volumes were calculated using the formula (π/6) (L×W2), where L=length of tumor and W=width. Body weight was monitored weekly over the course of the study. At the end of the xenograft studies, mice were anaesthetized and blood was collected by cardiac puncture and tumors were preserved for further biochemical and immunofluorescence analysis. […] Survival analysis was carried out using the GraphPad Prism 4.0 software (GraphPad Software, San Diego, Calif.). Statistical significance for Kaplan-Meier analysis was determined by the log-rank (Mantel-Cox) test. All procedures involving mice were approved by the University Committee on Use and Care of Animals (UCUCA) at the University of Michigan and conform to their relevant regulatory standards.

ERG [2] = molecular target: T1, ERG (Homo sapiens, UniProt P11308); assay: ERG:peptide binding by biolayer interferometry (OctetRED); conditions: for binding to ERG: OctetRED, result in words
T1 sequence (P11308 1-479): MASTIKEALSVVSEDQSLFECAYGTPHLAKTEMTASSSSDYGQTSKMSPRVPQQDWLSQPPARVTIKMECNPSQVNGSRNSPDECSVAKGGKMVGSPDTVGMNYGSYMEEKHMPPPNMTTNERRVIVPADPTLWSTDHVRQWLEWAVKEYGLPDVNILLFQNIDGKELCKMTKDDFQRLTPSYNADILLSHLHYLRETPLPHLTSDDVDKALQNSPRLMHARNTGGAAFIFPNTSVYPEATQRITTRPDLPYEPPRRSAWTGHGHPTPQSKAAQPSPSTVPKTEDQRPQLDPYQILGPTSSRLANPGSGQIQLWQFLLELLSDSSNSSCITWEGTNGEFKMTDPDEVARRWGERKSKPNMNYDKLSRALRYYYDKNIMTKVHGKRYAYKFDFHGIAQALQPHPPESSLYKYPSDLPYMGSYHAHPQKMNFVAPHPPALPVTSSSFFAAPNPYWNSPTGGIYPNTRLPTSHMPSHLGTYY
Description: (§1) The interaction coefficients between ERG and synthetic peptides or peptidomimetics were determined by biolayer interferometry technology using the Octet Red system (ForteBio). Purified ERG and GUS proteins were biotinylated by EZLink NHS-PEG4 Biotinylation Kit (Thermo Scientific) following the manufacturer's protocol and any unincorporated biotin was removed from the reactions with Zeba 2 ml desalt columns (Thermo). Biotinylated proteins (500 μg/ml) were then incubated with super streptavidin biosensors in binding buffer (20 mM HEPES pH 7.4, 150 mM NaCl), blocked with 10 μg/ml biocytin and washed three times in binding buffer. Peptides were serially diluted in binding buffer, mixed with the protein-coupled biosensors and peptidomimetic:protein association/dissociation was monitored for 10 min at 25° C. Nonspecific binding from the signal obtained from peptidomimetic:GUS interactions was subtracted from that of peptidomimetic:ERG interactions and baseline signal drift was controlled by monitoring immobilized ERG without peptide. Octet Red analysis software was used to analyze the data.

ERG in VCaP cells [3] = molecular target: T2, ERG in VCaP cells (Homo sapiens, UniProt P11308); assay: Immunoblot of ERG protein in treated VCaP cells; conditions: proteasome inhibitor co-treatment
Description: (§2) VCaP cells were seeded in 6-well plates at 0.5×10^6 cells/ml and after allowing cells to attach, cells were harvested and homogenized in NP40 lysis buffer (Sigma) containing a complete protease inhibitor cocktail (Roche). Ten micrograms of each protein extract was boiled in SDS sample buffer, size fractionated by SDS-PAGE, and transferred onto a PVDF membrane (GE Healthcare). […] Following three washes in TBS-T, the blots were incubated with horseradish peroxidase conjugated secondary antibody and the signals visualized by enhanced chemiluminescence system according to manufacturer's instructions (GE Healthcare).

ERG [4] = molecular target: T3, ERG (Homo sapiens, UniProt P11308); assay: Kd[μM]
T3 construct: cDNAs encoding full-length ERG and GUS were cloned into pDEST10 vector; His; made in house; host or cells: SF9 insect cells (Bac-to-Bac baculovirus)
Description: Table printed on a drawing sheet, FIG. 13
Head of the field: Kd[μM]
Where the first naming reader finds the target: passage: Capping of the EIP1 peptide at both the N- and C-terminus abolished binding to ERG (FIG. 13).

ERG [5] = molecular target: T3, ERG; assay: Kd[μM]; remark: listed apart in the source
Description: Table printed on a drawing sheet, FIG. 14 Head of the field: Kd[μM] […] Where the first naming reader finds the target: passage: the importance of the PYL residues for binding to ERG was identified

ERG:AR interaction [6] = molecular target: T4, ERG:AR interaction (Homo sapiens, UniProt P11308); assay: In vitro peptide competitive pull-down assay (cell-free); conditions: Halo-ERG with recombinant AR, increasing peptide concentrations
T4 sequence (P11308 1-479): T1 sequence (P11308 1-479)
Description: (§3) Halo-ERG fusion protein was expressed using in vitro transcription/translation system as described above. […] Protein mixtures were incubated with or without the peptides in PBS-T (0.1% Tween) at 4° C. overnight. Simultaneously, HaloLink beads (Promega) were blocked in 5% BSA at 4° C. overnight. The next day 10 μl of HaloLink beads were mixed with the protein-peptide mixture, incubated at RT for 1 hour, washed with 4× in PBS-T and eluted into SDS sample buffer. […] HaloLink beads without incubation with fusion proteins were used as negative controls.

ERG:DNA-PKcs interaction [7] = molecular target: T5, ERG:DNA-PKcs interaction (Homo sapiens, UniProt P11308); assay: as above; conditions: Halo-ERG with purified DNA-PKcs, increasing peptide concentrations
T5 sequence (P11308 1-479): T1 sequence (P11308 1-479)
Description: as §3

ERG_Y373A = ERG_Y373A (Homo sapiens, UniProt P11308, Y373A); assay: biochemical; assay type: binding
Description: as §1

ERG in VCaP cells [8] = molecular target: T2, ERG in VCaP cells
Description: The following primary and secondary antibodies were used: mouse-anti-ERG (Biocare) and goat-anti-mouse-Cy5 (Jackson Immuno-Research) respectively. […] Emission from individual fluorophores was detected sequentially. Image processing was performed in Imaris and colocalization analysis was done in Imaris (Bitplane). Colocalization was calculated as the percentage of FITC spots that colocalized with ERG spots in the nucleus.

[9] = system: cells containing the EWS-FLI1 fusion; assay: DNA damage in Ewing sarcoma cells; assay type: cell-based
VCaP cells = assay: Immunofluorescence confocal microscopy of FITC-labeled peptide uptake; assay type: cell-based; conditions: FITC-labeled peptides
Description: After 2 hours incubation, cells were washed two times in PBS, and fixed for 15 min in 100% methanol. After washing an additional three times in PBS, cells were mounted using Vectashield with DAPI (Vector laboratories). Images were captured using 100× oil objective lens on an Olympus Confocal microscope at the University of Michigan microscopy imaging lab.

[10] = system: Ewing sarcoma cells containing the EWS-ERG fusion; assay type: cell-based
Description: (A) Pull down of ERG in Ewing sarcoma cells containing a EWS-ERG fusion and reduced tumor growth in xenografts models of Ewing sarcoma. (B) Tumors containing the EWS-FLI1 fusion or osteosarcomas (A204) are not affected by treatments with peptides of the disclosure. […] Similarly, invasion potential was reduced by EIP1 and EIP2 treatment in Ewing sarcoma cells containing the EWS-ERG fusion.

ERG:DNA-PKcs interaction [11] = molecular target: T5, ERG:DNA-PKcs interaction
Description: as §3
ERG:AR interaction [12] = molecular target: T4, ERG:AR interaction
Description: as §3
ERG:EBS DNA interaction = molecular target: T6, ERG:EBS DNA interaction (Homo sapiens, UniProt P11308); assay type: biochemical
T6 construct: endogenous in cells; host or cells: VCaP cells (ATCC): cultured cells, lysates or extracts, or VCaP xenograft tumours in nude mice
Description: To determine the inhibitory activity of the peptide against the ERG:DNA interaction, electrophoretic mobility shift assays (EMSAs) were performed. Double stranded ERG ETS binding sequence (5′ […] 3′ (SEQ ID NO:109)) was end labeled using Biotin 3′ End DNA Labeling Kit (Pierce). For each binding reaction, VCaP cell extract was incubated with 1 μg poly d (I-C), 2 μl of EMSA binding buffer (1.5% glycerol, 75 mM KCl, 0.375 mM DTT, 12.5 mM NaCl, 0.375 mM phenylmethylsulfonyl fluoride [PMSF]) and 5 μM biotin-labeled EBS in the presence or absence of the peptides as indicated for 30 min at room temperature. The reaction mixtures were loaded onto 6% TBE gels (Invitrogen) and electrophoresed at 120 V for 2 hr at 4° C. in […] Tris-Borate-EDTA (TBE). Probes were transferred to nylon membrane (Biodyne B, Pall) in a semidry blotting device at 300 mA for 30 min. The membrane was baked for 30 min at 85° C. in a dry oven. Biotinylated oligonucleotides were detected by probing with streptavidin-conjugated horseradish peroxidase and visualized by enhanced chemiluminescence (Pierce).

PC3-ERG cells = assay: Boyden chamber basement membrane matrix invasion assay
Description: (§4) Complete media was added to the lower chamber as a chemoattractant. […] Invasive cells, located on the lower side of the membranes, were stained with crystal violet, air dried and photographed. To quantify the relative number of invaded cells, colorimetric assays were performed by treating the inserts with 150 μl of 10% acetic acid (v/v) and measuring absorbance of each sample in a spectrophotometer at 560 nm (GE Healthcare).
ERG:DNA-PKcs interaction [13] = molecular target: T7, ERG:DNA-PKcs interaction (Homo sapiens, UniProt P11308); assay: IP-Western blot in VCaP cells
T7 sequence (P11308 33-479 limits assumed): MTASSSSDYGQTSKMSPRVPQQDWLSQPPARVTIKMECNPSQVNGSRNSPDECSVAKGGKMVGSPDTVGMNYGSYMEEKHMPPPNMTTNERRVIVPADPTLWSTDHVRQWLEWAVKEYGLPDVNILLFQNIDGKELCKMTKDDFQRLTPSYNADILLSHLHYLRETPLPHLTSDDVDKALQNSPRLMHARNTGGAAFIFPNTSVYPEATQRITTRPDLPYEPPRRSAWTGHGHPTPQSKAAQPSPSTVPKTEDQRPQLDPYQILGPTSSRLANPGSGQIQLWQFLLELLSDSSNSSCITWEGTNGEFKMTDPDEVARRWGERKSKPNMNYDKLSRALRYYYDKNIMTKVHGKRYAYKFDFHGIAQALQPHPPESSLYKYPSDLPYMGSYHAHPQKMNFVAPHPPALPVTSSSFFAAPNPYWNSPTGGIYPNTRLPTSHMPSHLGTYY
Description: as §2
(§5) Cell pellets or tumors treated with or without the peptidomimetics were lysed in cell lysis buffer (20 mM MOPS, pH 7.0, 2 mM EGTA, 5 mM EDTA, 30 mM sodium fluoride, 60 mM β-glycerophosphate, 20 mM sodium pyrophosphate, 1 mM sodium orthovanadate, 1% Triton X-100, 1 mM DTT, protease inhibitor cocktail (Roche)). Cell lysates (0.5-1.0 mg) were pre-cleaned with protein A/G agarose beads (Santa Cruz) by incubation for 1 hour with shaking at 4° C. followed by centrifugation at 2000 rpm for 3 minute. Lysates were then incubated with 2 μg ERG antibody (Santa Cruz, C-17) at 4° C. for 4 hours with shaking prior to addition of 20 μl protein A/G agarose beads and incubated at 4° C. overnight. […] Samples were then analyzed by SDS-PAGE and Western blot analysis as described above.

RWPE1-ERG cells = assay: Boyden chamber basement membrane matrix invasion assay
Description: as §4
ERG:AR interaction [14] = molecular target: ERG:AR interaction (Homo sapiens, UniProt P11308); assay: IP-Western blot in VCaP cells
Description: as §2, §5

[15] = molecular target: T8, TMPRSS2:ERG gene fusion product (endogenous ERG) (Homo sapiens, UniProt P11308); assay: Biotin-peptide pull-down from VCaP cell lysates, immunoblot and mass spectrometry; assay type: binding; conditions: 53 kDa band of pull-downs, mass spectrometry
T8 construct: endogenous in cells; host or cells: VCaP cells (ATCC): cultured cells, lysates or extracts, or VCaP xenograft tumours in nude mice
Description: Approximately 1 mg of soluble VCaP cell lysate prepared in RIPA buffer (Invitrogen) was incubated with varying amounts of biotinylated peptides for 2 hours at 4° C. HaloLink agarose beads (20 μl) were added to the peptide-lysate mixture and incubated for an additional 4 hours. Beads were then pelleted by centrifugation, washed three times in PBS-T and loaded into an SDSPAGE gel followed by Western blot analysis. Total VCaP cell lysate was loaded for positive control.
The samples were treated with SDS loading buffer supplied with 10 mM DTT for 5 min at 85° C. The proteins were alkylated by adding iodoacetamide to the final concentration of 15 mM. The samples were subjected to SDS-PAGE and the whole lanes were cut out and digested with trypsin in-gel for 2 hours. […]
The resulting spectrum files were transformed into MGF format by MSConvert software and interrogated by MASCOT 2.4 search engine using human UniProt database version 15 concatenated with reverse sequences for estimation of false discovery rate (FDR) and with a list of common contaminants. […] The peptide FDR was calculated as 2×(decoy_hits)/(target+decoy hits). Spectral counts for all detected proteins were assembled using an in-house written Python script. […]

Sequence of ERG_Y373A (P11308 whole entry Y373A): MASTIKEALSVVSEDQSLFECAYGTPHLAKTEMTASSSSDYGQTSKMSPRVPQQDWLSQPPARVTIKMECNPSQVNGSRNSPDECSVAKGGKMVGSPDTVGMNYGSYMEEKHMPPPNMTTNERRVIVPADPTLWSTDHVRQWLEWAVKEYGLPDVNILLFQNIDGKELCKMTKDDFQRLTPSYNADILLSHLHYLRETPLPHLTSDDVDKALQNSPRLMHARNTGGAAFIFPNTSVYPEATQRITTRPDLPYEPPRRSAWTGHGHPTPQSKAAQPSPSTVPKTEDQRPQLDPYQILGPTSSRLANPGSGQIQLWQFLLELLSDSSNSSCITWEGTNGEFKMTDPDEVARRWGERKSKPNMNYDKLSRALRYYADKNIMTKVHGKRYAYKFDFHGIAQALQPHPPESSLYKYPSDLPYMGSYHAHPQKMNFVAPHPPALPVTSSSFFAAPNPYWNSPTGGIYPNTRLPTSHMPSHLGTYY

For `CC(C)C[C@@H](NC(=O)[C@@H](CO)NC(=O)[C@@H](Cc1ccccc1)NC(=O)CNC(=O)[C@@H](CO)NC(=O)[C@@H](CC(C)C)NC(=O)[C@H]1CCCN1C(=O)CNC(=O)CNC(=O)[C@@H](CCCNC(=N)N)NC(=O)[C@@H](CCCCN)NC(=O)[C@@H](CCCCN)NC(=O)[C@@H](CCCNC(=N)N)NC(=O)[C@@H](CCCNC(=N)N)NC(=O)[C@@H](CCC(N)=O)NC(=O)[C@@H](CCCNC(=N)N)NC(=O)[C@@H](CCCNC(=N)N)NC(=O)[C@@H](CCCNC(=N)N)NC(=O)CN)C(=O)O` [RI-EIP2] (H-G[dR][dR][dR][dQ][dR][dR][dK][dK][dR]GG[dP][dL][dS]G[dF][dS][dL]-OH), the “tumor growth of VCaP xenografts” value [1] was “significantly delayed tumor growth” and the Kd (ERG [2]) was 1.28 µM.

With `CC(C)C[C@H](NC(=O)[C@H](CCc1ccccc1)NC(=O)CN1CCOCC1)C(=O)N[C@@H](Cc1ccccc1)C(=O)N[C@@H](CC(C)C)C(=O)[C@@]1(C)CO1` [carfilzomib] the “effect on RI-EIP1-induced degradation of ERG protein” value (ERG in VCaP cells [3]) was “completely inhibited”.

Compound “Ac-LPPELFT-NH2 [7LT-4E, Ac- LPPELFT -NH2]” has a Kd (ERG [4]) of 3.6 µM.

In the case of Ac-LPPYLF-NH2 [6LF-A, Ac- LPPYLF -NH2], the Kd (ERG [5]) is reported as over 100 µM.

FTFGSLP [FTFGSLP] gave a Kd (ERG [2]) of 3.9 µM.

H-PPYLFT-NH2 [6PT-N, H2N- PPYLFT -NH2] gave a Kd (ERG [5]) of 11.5 µM.

For LPPALFT [muEIP1, LPPALFT], the “disruption of direct ERG:AR interaction” value (ERG:AR interaction [6]) was “not”, the “binding to ERG” value (ERG [2]) was “failed to bind” and the “disruption of direct ERG:DNA-PKcs interaction” value (ERG:DNA-PKcs interaction [7]) was “not”.

With “LPPTFLY [Scr, LPPTFLY, reference compound]” the “binding to ERG” value (ERG [2]) was “failed to bind”.

In the case of LPPYLFT [EIP1, LPPYLFT], the Kd (ERG_Y373A) is reported as over 100 µM, the “extent of green-red colocalization in the nucleus” value (ERG in VCaP cells [8]) is reported as 78±5% and the “DNA damage in cells containing the EWS-FLI1 fusion” value [9] is reported as “no effect”. For the same compound, the “entry into VCaP cells” value (VCaP cells) was “did not penetrate the cell membrane”, the Kd (ERG [2]; OctetRED biolayer interferometry, values in text) was 0.6 µM and the “DNA damage caused by oncogenic ERG (EWS-ERG fusion)” value [10] was “reduce DNA damage”. The invasion potential [10] was “reduced”, the “disruption of direct ERG:DNA-PKcs interaction” value (ERG:DNA-PKcs interaction [11]) was “disrupted” and the “disruption of direct ERG:AR interaction” value (ERG:AR interaction [12]) was “disrupted”. For the same compound, the “disruption of ERG:EBS DNA interaction” value (ERG:EBS DNA interaction) was “effectively disrupted”.

In the case of LPPYLFTGGRKKRRQRRRG [TAT-EIP1], the “PC3 cell invasion driven by overexpression of ERG” value (PC3-ERG cells) is reported as “inhibited”, the “block of ERG:DNA-PKcs interaction in VCaP cells” value (ERG:DNA-PKcs interaction [13]) is reported as “significantly blocked” and the “invasion of RWPE1-ERG cells” value (RWPE1-ERG cells) is reported as “significantly attenuated”. For the same compound, the “block of ERG:AR interaction in VCaP cells” value (ERG:AR interaction [14]) was “significantly blocked”.

For LRFGTLP [LRFGTLP], the Kd (ERG [2]) was 7.9 µM.

With “LSAGSAP [muEIP2, LSAGSAP, reference compound]” the “binding to ERG” value (ERG [2]) was “failed to bind” and the “spectral counts for the ERG peptide NTGGAAFIFPNTSVYPEATQR” value [15] was 2 spectral counts.

In the case of LSFGSLP [EIP2, LSFGSLP], the “DNA damage in cells containing the EWS-FLI1 fusion” value [9] is reported as “no effect”, the “DNA damage caused by oncogenic ERG (EWS-ERG fusion)” value [10] is reported as “reduce DNA damage” and the invasion potential [10] is reported as “reduced”. The “disruption of direct ERG:DNA-PKcs interaction” value (ERG:DNA-PKcs interaction [11]) was “disrupted” and the “disruption of direct ERG:AR interaction” value (ERG:AR interaction [12]) was “disrupted”.

With LSFGSLPGGRKKRRQRRRG [TAT-EIP2] the “PC3 cell invasion driven by overexpression of ERG” value (PC3-ERG cells) was “inhibited”, the “block of ERG:DNA-PKcs interaction in VCaP cells” value (ERG:DNA-PKcs interaction [13]) was “significantly blocked” and the “invasion of RWPE1-ERG cells” value (RWPE1-ERG cells) was “significantly attenuated”. The “block of ERG:AR interaction in VCaP cells” value (ERG:AR interaction [14]) was “significantly blocked”.
